Where a name gives a salt, the structure may show the parent alone.
How the values were obtained:
[1] = target: T1, NMDA receptor (Rattus norvegicus, UniProt P35439+Q00960); test: 3H-Ro 25-6981 binding (displacement, rat brain membranes); settings: 5 nM 3H-Ro 25-6981, 2 hours at 4°C
T1 construct: Membranes were prepared by homogenization of the whole brain minus cerebellum and medulla oblongata; from tissue; host or cells: rat whole brain minus cerebellum and medulla oblongata, membranes
Protocol: 3H-Ro 25-6981 binding (Ro 25-6981 is [R-(R*,S*)]-a-(4-Hydroxy-phenyl)-b-methyl-4-(phenyl-methyl)-1-piperidine propanol)
(§1) Male Füllinsdorf albino rats weighing between 150-200 g were used. Membranes were prepared by homogenization of the whole brain minus cerebellum and medulla oblongata with a Polytron (10.000 rpm, 30 seconds), in 25 volumes of a cold Tris-HCl 50 mM, EDTA 10 mM, pH 7.1 buffer. The homogenate was centrifuged at 48.000 g for 10 minutes at 4°C. The pellet was resuspended using the Polytron in the same volume of buffer and the homogenate was incubated at 37°C for 10 minutes. After centrifugation the pellet was homogenized in the same buffer and frozen at -80°C for at least 16 hours but not more than 10 days. For the binding assay the homogenate was thawed at 37°C, centrifuged and the pellet was washed three times as above in a Tris-HCl 5 mM, pH 7.4 cold buffer. The final pellet was resuspended in the same buffer and used at a final concentration of 200 µg of protein/ml.
3H-Ro 25-6981 binding experiments were performed using a Tris-HCl 50 mM, pH 7.4 buffer. For displacement experiments 5 nM of 3H-Ro 25-6981 were used and non specific binding was measured using 10 µM of tetrahydroisoquinoline and usually it accounts for 10% of the total. The incubation time was 2 hours at 4°C and the assay was stopped by filtration on Whatmann GF/B glass fiber filters (Unifilter-96, Packard, Zürich, Switzerland). The filters were washed 5 times with cold buffer. The radioactivity on the filter was counted on a Packard Top-count microplate scintillation counter after addition of […] of microscint 40 (Canberra Packard S.A., Zürich, Switzerland).
The effects of compounds were measured using a minimum of 8 concentrations and repeated at least once. The pooled normalized values were analyzed using a non-linear regression calculation program which provide IC50 with their relative upper and lower 95% confidence limits (RS1, BBN, USA).

[2] = target: 3H-Prazosine binding; test: 3H-Prazosine binding (displacement, rat brain membranes); settings: 0.2 nM 3H-Prazosine, 30 minutes at room temperature
Protocol: as §1, with “a Plytron” for “a Polytron”, “EDTA 10mM,” for “EDTA 10 mM,”, “Tris-HCl 5mM,” for “Tris-HCl 5 mM,”
3H-Prazosine binding experiments were performed using a Tris-HCl 50 mM, pH 7.4 buffer. For displacement experiments 0.2 nM of 3H-Prazosine were used and non specific binding was measured using 100 µM of Chlorpromazine. The incubation time was 30 minutes at room temperature and the assay was stopped by filtration on Whatman GF/B glass fiber filters (Unifilter-96, Canberra Packard S.A., Zürich, Switzerland). The filters were washed 5 times with cold buffer. The radioactivity on the filter was counted on a Packard Top-count microplate scintillation counter after addition of […] of microscint 40 (Canberra Packard S.A., Zürich, Switzerland). The effects of compounds were measured using a minimum of 8 concentrations and repeated at least once. The pooled normalized values were analyzed using a non-linear regression calculation program which provide IC50 with their relative upper and lower 95% confidence limits (RS1, BBN, USA).

[3] = target: T2, NR1C + NR2A (Rattus norvegicus, UniProt Q00959); test: Electrophysiology on recombinant NMDA receptors (voltage clamp, Xenopus laevis oocytes), NR1C + NR2A; type: cell-based; settings: 10 µM compound; oocytes clamped to -80 mV; 2.7 µM Glu plus 0.9 µM Gly; mean of four to six oocytes
T2 construct: expressed in transfected cells; host or cells: Xenopus laevis oocytes, nuclear injection of pBC/CMV expression plasmids
T2 sequence (Q00959 23-1464, other chains not shown): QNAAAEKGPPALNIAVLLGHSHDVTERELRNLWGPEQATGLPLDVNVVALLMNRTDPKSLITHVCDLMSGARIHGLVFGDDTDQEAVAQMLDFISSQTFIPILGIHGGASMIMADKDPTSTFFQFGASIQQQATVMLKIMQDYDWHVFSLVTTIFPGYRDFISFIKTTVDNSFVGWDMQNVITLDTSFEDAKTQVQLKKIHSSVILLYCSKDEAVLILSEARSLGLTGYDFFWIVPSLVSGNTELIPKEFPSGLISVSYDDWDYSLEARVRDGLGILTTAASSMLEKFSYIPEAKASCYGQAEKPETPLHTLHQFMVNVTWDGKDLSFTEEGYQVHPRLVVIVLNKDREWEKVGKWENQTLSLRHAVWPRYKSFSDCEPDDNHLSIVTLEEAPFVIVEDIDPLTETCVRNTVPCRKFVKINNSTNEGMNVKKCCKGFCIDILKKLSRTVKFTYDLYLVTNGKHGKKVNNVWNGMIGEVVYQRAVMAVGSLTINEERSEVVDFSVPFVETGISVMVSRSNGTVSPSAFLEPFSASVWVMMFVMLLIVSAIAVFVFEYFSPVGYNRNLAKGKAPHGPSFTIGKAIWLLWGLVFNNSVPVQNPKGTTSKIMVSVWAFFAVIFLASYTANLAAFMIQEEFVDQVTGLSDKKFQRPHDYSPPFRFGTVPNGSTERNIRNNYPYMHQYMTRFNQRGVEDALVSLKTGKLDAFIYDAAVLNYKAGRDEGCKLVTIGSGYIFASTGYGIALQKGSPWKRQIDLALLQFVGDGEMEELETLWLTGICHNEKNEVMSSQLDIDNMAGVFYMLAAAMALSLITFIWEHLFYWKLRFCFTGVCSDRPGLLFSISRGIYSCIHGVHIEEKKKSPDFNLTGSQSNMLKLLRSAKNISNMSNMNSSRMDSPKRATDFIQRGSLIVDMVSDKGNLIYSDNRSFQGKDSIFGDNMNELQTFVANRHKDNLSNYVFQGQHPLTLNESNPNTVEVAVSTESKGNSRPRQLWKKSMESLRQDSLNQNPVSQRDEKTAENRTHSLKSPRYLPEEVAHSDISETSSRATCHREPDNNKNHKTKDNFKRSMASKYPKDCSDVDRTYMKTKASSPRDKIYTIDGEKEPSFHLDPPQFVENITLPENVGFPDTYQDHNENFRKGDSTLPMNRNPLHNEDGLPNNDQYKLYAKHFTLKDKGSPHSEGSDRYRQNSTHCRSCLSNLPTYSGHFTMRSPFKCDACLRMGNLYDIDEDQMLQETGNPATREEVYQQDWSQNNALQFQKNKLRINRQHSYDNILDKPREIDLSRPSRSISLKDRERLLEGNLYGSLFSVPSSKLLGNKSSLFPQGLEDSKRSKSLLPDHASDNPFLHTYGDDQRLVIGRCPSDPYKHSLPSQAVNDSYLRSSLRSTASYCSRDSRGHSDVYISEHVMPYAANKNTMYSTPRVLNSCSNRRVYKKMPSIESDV
Excerpt: (§2) Electrophysiology on recombinant NMDA receptors
(§3) cDNA clones coding for the subunits NR1C and NR2A of the NMDA receptor (see Hollmann and Heinemann, 1994, Annu. Rev. Neurosci. 17:31 for nomenclature of NMDA receptor subunits) were isolated from a rat brain λgt11 cDNA library as published elsewhere (Sigel et al., 1994, J. Biol. Chem. 269:8204). The clone for the subunit NR2B of the rat brain NMDA receptor was obtained from S. Nakanishi (Kyoto, Japan). The cDNAs encoding rat NR1C, NR2A and NR2B were subcloned into the expression vector pBC/CMV (Bertocci et al., 1991, Proc. Natl. Acad. Sci. U.S.A. 88:1416), placing transcription of the cDNA under control of the human cytomegalovirus promoter. CsCl-purified expression plasmids were mixed in a 1:3 ratio of NR1C:NR2A or NR1C:NR2B in injection buffer (88 mM NaCI, 1 mM KCl, 15 mM HEPES, at pH 7.0). Oocytes of South African frogs (Xenopus laevis) were used for expressing either a combination of the NR1C and NR2A subunits or the NR1C and NR2B subunits. 12 to 120 pg of a 1:3 (NR1C:NR2B) mixture of the respective cDNA species were injected into the nucleus of every oocyte. On the following two days the ion current through the NMDA receptor channels was measured in voltage clamp experiments for the methods of cDNA expression in oocytes and voltage-clamping (see, e.g., Bertrand et al., 1991, Methods in Neurosciences 4:174). The membrane potential was clamped to -80 mV and the receptors were activated by applying a modified Ringer's solution containing the NMDA-receptor agonists L-glutamate (Glu) and glycine (Gly). Different agonist concentrations were chosen for either subunit combination to account for the different agonist sensitivities of the two types of receptors (2.7 µM Glu plus 0.9 µM Gly for NR1C + NR2A and 1.3 µM Glu plus 0.07 µM Gly for NR1C + NR2B). The agonists were applied for 15 s intervals once every 2.5 min by rapid superfusion of the oocyte with agonist containing solution and the amplitude of the agonist-evoked current was measured immediately before the end of each application. After a series of initial control applications the antagonist to be tested was added to both, the basal Ringer's and the agonist containing solution. The antagonist concentration applied to oocytes expressing the NR2A subunit was 10 µmol/l, whereas 0.1 µmol/l were applied to the NR2B expressing oocytes. Four to six oocytes were tested for every compound and NMDA receptor subtype. Oocytes were exposed to the compounds for 5 to 30 min depending on the time needed for reaching an equilibrium block of the NMDA receptor current. For every oocyte the decrease of the current amplitude was expressed as a percentage of the control current measured before application of the compound. Figures in the table are arithmetic mean values of these percentage values.

[4] = target: T3, NR1C + NR2B (Rattus norvegicus, UniProt P35439+Q00960); test: Electrophysiology on recombinant NMDA receptors (voltage clamp, Xenopus laevis oocytes), NR1C + NR2B; type: cell-based; settings: 0.1 µM compound; oocytes clamped to -80 mV; 1.3 µM Glu plus 0.07 µM Gly; mean of four to six oocytes
T3 construct: expressed in transfected cells; host or cells: Xenopus laevis oocytes, nuclear injection of pBC/CMV expression plasmids
T3 sequence (Q00960 27-1482, other chains not shown): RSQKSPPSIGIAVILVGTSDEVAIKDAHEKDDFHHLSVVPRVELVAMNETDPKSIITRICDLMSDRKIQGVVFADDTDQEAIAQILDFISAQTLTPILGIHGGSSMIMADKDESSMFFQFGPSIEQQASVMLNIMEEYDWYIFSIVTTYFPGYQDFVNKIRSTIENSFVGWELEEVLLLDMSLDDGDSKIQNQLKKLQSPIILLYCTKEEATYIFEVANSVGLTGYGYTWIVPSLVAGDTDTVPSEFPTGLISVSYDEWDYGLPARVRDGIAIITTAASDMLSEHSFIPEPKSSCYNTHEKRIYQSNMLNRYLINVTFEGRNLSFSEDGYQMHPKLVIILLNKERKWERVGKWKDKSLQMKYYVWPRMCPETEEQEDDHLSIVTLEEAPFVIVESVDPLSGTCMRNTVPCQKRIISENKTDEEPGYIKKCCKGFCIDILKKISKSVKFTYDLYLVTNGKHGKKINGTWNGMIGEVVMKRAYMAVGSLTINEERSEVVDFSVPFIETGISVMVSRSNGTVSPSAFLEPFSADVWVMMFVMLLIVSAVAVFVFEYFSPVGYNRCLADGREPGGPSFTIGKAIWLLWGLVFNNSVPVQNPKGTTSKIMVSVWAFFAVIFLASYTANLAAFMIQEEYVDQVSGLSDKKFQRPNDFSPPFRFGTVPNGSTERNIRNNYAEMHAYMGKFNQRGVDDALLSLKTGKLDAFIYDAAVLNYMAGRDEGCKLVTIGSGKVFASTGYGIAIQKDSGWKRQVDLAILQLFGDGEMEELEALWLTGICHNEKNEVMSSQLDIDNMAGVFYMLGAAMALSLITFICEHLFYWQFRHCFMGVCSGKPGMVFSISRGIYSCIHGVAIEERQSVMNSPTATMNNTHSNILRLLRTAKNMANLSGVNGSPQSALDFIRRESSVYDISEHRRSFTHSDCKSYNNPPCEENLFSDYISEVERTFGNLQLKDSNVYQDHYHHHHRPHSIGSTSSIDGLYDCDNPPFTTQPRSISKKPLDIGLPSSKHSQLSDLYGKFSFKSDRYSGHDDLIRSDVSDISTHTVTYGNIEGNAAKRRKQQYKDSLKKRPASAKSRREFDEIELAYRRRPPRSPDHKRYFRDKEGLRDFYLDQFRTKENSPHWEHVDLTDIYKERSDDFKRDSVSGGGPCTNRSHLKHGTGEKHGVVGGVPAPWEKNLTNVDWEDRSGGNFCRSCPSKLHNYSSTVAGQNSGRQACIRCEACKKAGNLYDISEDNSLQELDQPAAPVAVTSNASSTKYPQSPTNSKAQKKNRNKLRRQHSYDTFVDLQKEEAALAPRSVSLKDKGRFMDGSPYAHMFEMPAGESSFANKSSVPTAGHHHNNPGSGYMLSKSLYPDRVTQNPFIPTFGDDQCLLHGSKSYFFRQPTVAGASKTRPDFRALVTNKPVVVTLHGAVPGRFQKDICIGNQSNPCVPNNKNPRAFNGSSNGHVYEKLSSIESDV
Excerpt: as §2, §3

T1 sequence (Q00960 27-1482, other chains not shown): as above

SMILES | IC50 [2] | IC50 [1] | Electrophysiology NR1C + NR2A % block by 10 µM [3] | Electrophysiology NR1C + NR2B % block by 0.1 µM [4]
Oc1ccc2c(c1)CC(CN1CCC(O)(Cc3ccccc3)CC1)O2 (racemic) [Example 4, (RS)-4-Benzyl-1-(5-hydroxy-2,3-dihydro-benzofuran-2-ylmethyl)-piperidin-4-ol hydrochloride] | 2500 nM | 50 nM | – | –
CCc1ccc(CC2(O)CCN(CC3Cc4cc(O)ccc4O3)CC2)cc1.Cl (racemic) [Example 7, (RS)-4-(4-Ethyl-benzyl)-1-(5-hydroxy-2,3-dihydro-benzofuran-2-ylmethyl)-piperidin-4-ol hydrochloride] | 6000 nM | 12 nM | 12% | 89%
Cl.Oc1ccc2c(c1)C[C@@H](CN1CCC(O)(Cc3ccc(Cl)cc3)CC1)O2 [Example 14, (S)-1-(5-Hydroxy-2,3-dihydro-benzofuran-2-ylmethyl)-4-(4-chloro-benzyl)-piperidin-4-ol hydrochloride] | 6000 nM | 5 nM | 9% | 90%
Cc1ccc(CC2(O)CCN(C[C@@H]3Cc4cc(O)ccc4O3)CC2)cc1.Cl [Example 13, (S)-1-(5-Hydroxy-2,3-dihydro-benzofuran-2-ylmethyl)-4-(4-methyl-benzyl)-piperidin-4-ol hydrochloride] | 6000 nM | 14 nM | 8% | 93%
Cc1ccc(CC2(O)CCN(CC3Cc4cc(O)ccc4O3)CC2)cc1 (racemic) [Example 2, (RS)-1-(5-Hydroxy-2,3-dihydro-benzofuran-2-ylmethyl)-4-(4-methyl-benzyl)-piperidin-4-ol hydrochloride] | 3200 nM | 20 nM | – | –
Oc1ccc2c(c1)CC(CN1CCC(O)(Cc3ccc(F)cc3)CC1)O2 (racemic) [Example 5, (RS)-4-(4-fluoro-benzyl)-1-(5-hydroxy-2,3-dihydro-benzofuran-2-ylmethyl)-piperidin-4-ol hydrochloride] | 4000 nM | 40 nM | – | –
Oc1ccc2c(c1)CC[C@H](CN1CCC(O)(Cc3ccccc3)CC1)[C@H]2O (racemic) [Example 29, (1RS,2RS)-2-(4-Benzyl-4-hydroxy-piperidin-1-yl-methyl)-6-hydroxy-1,2,3,4-tetrahydro-naphthalen-1-ol] | 11000 nM | 23 nM | – | –

Continued, in another order:

IC50 [2] | SMILES | IC50 [1] | Electrophysiology NR1C + NR2A % block by 10 µM [3] | Electrophysiology NR1C + NR2B % block by 0.1 µM [4]
2300 nM | Cc1ccc(CC2(O)CCN(CC3Cc4cc(NS(C)(=O)=O)ccc4O3)CC2)cc1 (racemic) [Example 23, (RS)-N(2-[4-hydroxy-4-(4-methyl-benzyl)-piperidin-1-ylmethyl]-2,3-dihydrobenzofuran-5-yl]-methane sulfonamide hydrochloride] | 40 nM | – | –
5000 nM | Cc1ccc(CC2(O)CCN(CC3Cc4cc(O)ccc4C3O)CC2)cc1 (stereo not drawn) [Example 16, (1RS,2RS) and (1RS,2SR)-2-[4-Hydroxy-4-(4-methyl-benzyl)-piperidine-1-ylmethyl]-indan-1,5-diol fumarate salt] | 23 nM | 6% | 86%
6600 nM | Cc1ccc(CC2(O)CCN(CC3Cc4cc(O)ccc4N3)CC2)cc1 (racemic) [Example 21, (RS)-2-[4-Hydroxy-4-(4-methyl-benzyl)-piperidin-1-ylmethyl]-2,3-dihydro-1H-indol-5-ol] | 55 nM | – | –
6000 nM | Cc1ccc(CC2(O)CCN(C[C@H]3CCc4cc(O)ccc4[C@@H]3O)CC2)cc1.O=C(O)/C=C/C(=O)O (racemic) [Example 27, (1RS, 2RS)-1-(1,6-Dihydroxy-1,2,3,4-tetrahydro-naphthalen-2-ylmethyl)-4-(4-methyl-benzyl)-piperidin-4-ol fumarate salt] | – | 15% | 91%
6500 nM | CS(=O)(=O)Nc1ccc2c(c1)CC(CN1CCC(O)(Cc3ccc(Cl)cc3)CC1)O2 (racemic) [Example 22, (RS)-N-{2-[4-(4-chloro-benzyl)-4-hydroxy-pipiridin-1-ylmethyl]-2,3-dihydroxybenzofuran-5-yl}methane sulfonamide hydrochloride] | – | – | –
3200 nM | Cc1ccc(CC2(O)CCN(CC3Cc4ccc(O)cc4C3)CC2)cc1 (racemic) [Example 19, (RS)-1-(5-Hydroxy-indan-2-ylmethyl)-4-(4-methyl-benzyl)-piperidin-4-ol] | 55 nM | – | –
800 nM | Cc1ccc(CC2(O)CCN(CC3CCc4cc(O)ccc4C3)CC2)cc1 (racemic) [Example 30, (RS)-1-(6-Hydroxy-1,2,3,4-tetrahydro-naphthalen-2-ylmethyl)-4-(4-methyl-benzyl)-piperidin-4-ol hydrochloride] | 20 nM | – | –

Source: patent EP0846683B1, “4-Hydroxy-piperidine derivatives” (F. HOFFMANN-LA ROCHE AG, priority 1996, dated 1998)
